Results published in patent US12268727B2, “Bioactive polypeptides for improvements in plant protection, growth and productivity” (priority 2017, dated 2025).
Values joined by “and” are separate entries in the source; they are usually repeats but may differ in a detail not shown here. Identical values can stand only once. “Also recorded” adds a separate entry of the source.

What was measured:
[1] = test system: corn; assay: Seed treatment of corn, field yield trials; type: in vivo; conditions: for yield increase vs non-treated seed: 2 hybrids; for Average Yield Bu/Ac / Average Change in Bu/Ac compared to Untreated Control: seed treatment on base ST, BECK's 5828YX; for Average Yield Bu/Ac: 1 location, four replicated trials; for Average Total Yield Bu/Ac Hybrid 1 / Average Total Yield Bu/Ac Hybrid 1 and 2 / Average Total Yield Bu/Ac Hybrid 2: seed treatment
[2] = test system: reactive oxygen species (ROS) production in soybean leaf tissue; assay: ROS activity assay in soybean leaf tissue (luminol/horseradish peroxidase, RLU); type: cell-based; conditions: for Fold increase over negative control: vs mock (water)
[3] = test system: reactive oxygen species (ROS) production in Arabidopsis leaf tissue; assay: ROS activity assay in Arabidopsis leaf tissue; type: cell-based, Arabidopsis thaliana; conditions: 100 nM each polypeptide, negative control (water) 82896
Protocol: Elf18 and Elf26 polypeptides derived from the consensus Bacillus cereus Elongation Factor-TU (EF-Tu) protein were tested for ability to produce a ROS response in corn (hybrid 5828 YX), soy (variety Morsoy), and Arabidopsis thaliana. Polypeptides were synthesized by Genscript USA (Piscataway, N.J.) using standard solid-phase synthesis methods and provided as a lyophilized powder with greater than or equal to 70% purity. Dry powder was re-suspended to a concentration of 10 mM in ultrapure water, and then serially diluted in ultrapure water to the concentrations tested in the ROS assay in Table 98.
For the ROS assay, Arabidopsis leaves were excised from 4-week-old plants, and using a cork borer 4 mm disks were removed from the leaves. Each disc was cut in half using the edge of a razor blade, and then each disc half was floated on 150 μL of water abaxial side touching the water in a 96-well plate to rest overnight. The next day, the water was removed from each well just prior to polypeptide treatment. RLU values and relative ROS activity was reported as the average of 4 measurements.

[4] = test system: Cercospora; assay: Cercospora leaf blight of soybean, symptom rating in US Midwest fields; type: in vivo, Cercospora kikuchii; conditions: for early symptom development (leaf area affected): 4 weeks, V3 foliar; for symptom ranking: 8 weeks; for Percent of Disease Area covering plant, 4 weeks Post Application / Disease Area, 8 weeks Post Application: foliar at V3; for Percent of Disease Area covering plant, 4 weeks Post Application: control 30%; for Disease Area, 8 weeks Post Application: control 50%
[5] = test system: Candidatus Liberibacter asiaticus; conditions: in vivo
[6] = test system: citrus trees; type: in vivo, Citrus sinensis; Citrus×paradisi; conditions: Valencia orange and Ruby Red grapefruit, 1× and 10× injection April 2017, measured June 2018
[7] = test system: corn; assay: Foliar application to corn in growth room, plant height (non-stress, heat and water deficit stress); conditions: for increase in plant height vs surfactant alone / Δ Height Normalized as a percentage of control height: 1 μM; for increase in plant height vs surfactant alone: V2-V3, heat and water deficit stress; for Δ Height (cm) / Δ Height Normalized as a percentage of control height: corn, heat and water deficit stress; for Δ Height (cm): 1 μM with 0.1% surfactant; for Δ Height Normalized as a percentage of control height: surfactant control = 100%; for plant height as % of control: foliar 1 μM
[8] = test system: soybean; assay: Soybean nodulation, root biomass and total biomass after foliar application; type: in vivo
Protocol: Effective nodulation of soybean roots result in higher yields and higher quality seed production, protein and oil per seed or acre basis. This could be due to increased nitrogen fixation since nodulale formation increases nitrogen fixation. To determine whether root hair promoting bioactive priming polypeptide, RHPP (SEQ ID NO: 600) could modulate root biomass and nodulation and thereby improve nitrogen fixation, soybean plants (hybrid Morsoy 38X52 and Beck's hybrid 297R4) were treated with foliar application of RHPP (300 nM) at the R1-R2 stage of development.
RHPP bioactive priming polypeptide (SEQ ID NO: 600, originally derived from Glycine max) was applied as foliar treatment to 4-week-old hybrid soybean (Morsoy variety) with 0.1% (v/v) non-ionic surfactant ([…] SURFACE™) using a spray bottle and delivering approximately 1.25 ml/plant. The experiment was conducted using a total of 8 plants per trial per treatment group. […] Growth parameters of nodule counts, root biomass and total biomass per plant were measured at 15 days post the foliar application and compared between the foliar treatments consisting of […] SURFACE surfactant (0.1% v/v) as a control and the RHPP polypeptide (300 nM) containing the […] SURFACE surfactant (0.1% v/v). Average growth parameters as described were normalized to the control plants that received the surfactant alone treatment (Table 38).

[9] = test system: soybean; assay: Soybean pod number after foliar application; type: in vivo; conditions: 300 nM at R1 and 17 days later, counted after 31 days
Protocol: Plants were then placed under a long day conditions consisting of 16/8 light/day cycle and temperature 21-26° C. to promote early flowering and speed up progression to the reproductive (R) growth stage. When the soybean plants had reached the R1 stage of development a foliar application containing the Gm.RHPP (SEQ ID NO: 600) polypeptide at a final concentration of 300 nM and a non-ionic surfactant of 0.10% (NIS90:10; Precision Laboratories, LLC) was applied to soybean. Soybean plants were provided with the Gm.RHPP formulation and a non-ionic surfactant only control. Both the Gm.RHPP and the non-ionic surfactant control treatment were applied to 18 plants per treatment. Six equidistant sprays were provided approximately 15 cm above per each plant for complete coverage of foliage. After treatment application, the R1 soybean plants were returned to the control environmental growth room. […] Soybean pods of more than 1 mm in length were counted on the plants after 31 days from the first foliar spray treatment applications. […] A p value (p<0.05 for significance) was calculated from a paired T-test comparison between pod number from plants that received the Gm.RHPP and the non-ionic surfactant control treatment applications.

[10] = polypeptide 0.25 μM (cellobiose 1 mM where combined)
[11] = polypeptide 1.0 μM (cellobiose 1 mM where combined)
[12] = 0.25 μM in seed coating slurry (0.035 fl oz of 40 μM peptide solution/unit)
[13] = 1.0 μM in seed coating slurry (0.14 fl oz of 40 μM peptide solution/unit)
[14] = soybean leaf tissue, Bt.4Q7Flg22 52.2 nM without surfactant
[15] = soybean leaves, Bt.4Q7Flg22 100 nM, No PROXEL Preservative Added
[16] = 300 nM + 0.1% v/v ALLIGARE SURFACE, Morsoy soybean, 15 days post application
[17] = 300 nM + 0.1% v/v ALLIGARE SURFACE, Morsoy soybean, 15 days post foliar application, n = 8
[18] = 300 nM, Morsoy, 15 days post application

Bt.4Q7Flg22: Flg22 polypeptide (22 amino acids) from flagellin of Bacillus thuringiensis strain 4Q7 (DRLSSGKRINSASDDAAGLAIA; listed as Bacillus thuringiensis)
yield gain vs base seed treatment only ([1]; 1 uM in slurry, 3 hybrids, 8 locations): 4.73 Bu/Ac | yield increase vs non-treated seed ([1]; high rate, 1.0 μM slurry (0.14 Fl. oz per unit), 12 locations): 5.3 Bu/Ac | yield increase vs non-treated seed ([1]; low rate, 0.25 μM slurry (0.035 Fl. oz per unit), 12 locations): 2.1 Bu/Ac | win rate ([1]; second study, 12 locations): 50% | yield advantage ([1]; second study, 12 locations): 2.8 Bu/Ac | Average Yield Bu/Ac [1, 10]: 47.06 Bu/Ac | Average Yield Bu/Ac [1, 11]: 29.60 Bu/Ac | Average Change in Bu/Ac compared to Untreated Control [1, 10]: +19.07 Bu/Ac | Average Change in Bu/Ac compared to Untreated Control [1, 11]: +1.60 Bu/Ac | Average Total Yield Bu/Ac Hybrid 1 [1, 12]: 218.36 Bu/Ac | Average Total Yield Bu/Ac Hybrid 1 and 2 [1, 12]: 200.62 Bu/Ac | Average Total Yield Bu/Ac Hybrid 2 [1, 12]: 182.88 Bu/Ac | Average Total Yield Bu/Ac Hybrid 1 [1, 13]: 213.44 Bu/Ac | Average Total Yield Bu/Ac Hybrid 1 and 2 [1, 13]: 202.62 Bu/Ac | Average Total Yield Bu/Ac Hybrid 2 [1, 13]: 187.48 Bu/Ac | fold-increase in ROS production over mock-treated control ([2]; 52.2 nM Bt.4Q7Flg22, NIS90:10 0.25% or 0.5% v/v, Silwet-L77 0.025% or 0.1% v/v): 6.8 × | fold increase in RLU over mock treatment ([2]; 100 nM Bt.4Q7Flg22, Proxel compatibility test): 17.0 × | Avg. Activity (%) Soybean (297 R4) 100 nM polypeptide ([2]; Table 33, RLU relative to native Bt.4Q7Flg22 = 100): 100% | Avg. Activity (%) Soybean (297 R4) 100 nM polypeptide ([2]; Table 35, single polypeptides and combinations, Bt.4Q7Flg22 = 100): 100% | relative ROS activity ([2]; soy leaf tissue, 10 nM): 0.04 × | Polypeptide Concentration (nM) for 5 × 10^4 total RLU production ([2]; soybean leaf discs, from best-fit regression, Table 72 data set): 31.4 nM | Average RLU values [2, 14]: 350503 RLU | Fold increase over negative control [2, 14]: (6.8X) | Average RLU values [2, 15]: 81887 RLU | Fold increase over negative control [2, 15]: (17.0X) | Average RLU value [3]: 258073 RLU | early symptom development (leaf area affected) ([4]; 0.33 Fl. oz/Ac): 20% | early symptom development (leaf area affected) ([4]; 4.0 Fl. oz/Ac): approximately 5% | symptom ranking ([4]; 0.33 Fl. oz/Ac): comparable to the non-treated control plants | symptom ranking ([4]; 4.0 Fl. oz/Ac): considerably less apparent symptoms and damage | Percent of Disease Area covering plant, 4 weeks Post Application ([4]; 0.33 Fl. oz/Ac): 20% | Disease Area, 8 weeks Post Application ([4]; 0.33 Fl. oz/Ac): 50% | Percent of Disease Area covering plant, 4 weeks Post Application ([4]; 4.0 Fl. oz/Ac): 5% | Disease Area, 8 weeks Post Application ([4]; 4.0 Fl. oz/Ac): 35% | Ct values vs control trees [5]: slightly higher Ct counts; also recorded: significantly higher Ct values | Percentage Reduction in CLas titer Normalized to the Control, Trial 1 [5]: 37% and 33% | reduction in CLas titer levels [5]: 37% and 43% | fruit per limb and fruit size vs untreated control [6]: increased fruit per limb and increased fruit size | increase in plant height vs surfactant alone ([7]; Trial 1): ~13% | increase in plant height vs surfactant alone ([7]; Trial 3): > 33% | Δ Height (cm) ([7]; Trial 1): +11.68 cm | Δ Height Normalized as a percentage of control height ([7]; Trial 1): 112.9% | Δ Height (cm) ([7]; Trial 2): +9.28 cm | Δ Height Normalized as a percentage of control height ([7]; Trial 2): 99.5% | Δ Height (cm) ([7]; Trial 3): +11.03 cm | Δ Height Normalized as a percentage of control height ([7]; Trial 3): 133.2% | plant height as % of control ([7]; heat/water stressed conditions): ~108% | plant height as % of control ([7]; non-stressed conditions): 108% and 102%

GGIRAAPTGNER (Glycine max) [RHPP, Root Hair Promoting Peptide from Glycine max]
Average nodule count per plant, RHPP treatment normalized as a percentage of the surfactant control [8, 16]: 170.42% | Root biomass, RHPP treatment normalized as a percentage of the surfactant control [8, 16]: 120.57% | Total biomass, RHPP treatment normalized as a percentage of the surfactant control [8, 16]: 108.44% | Average nodule count per plant [8, 17]: 15.13 | Root biomass [8, 17]: 2.13 g | Total biomass [8, 17]: 46.24 g | increase in root biomass normalized to control [8, 18]: more than 20% | increase in total biomass normalized to control [8, 18]: 8% | number of nodules per plant vs surfactant control [8, 18]: approximately two times the number of nodules | pod count vs non-ionic surfactant control [9]: approximately doubled pod count
